Where two headings read alike, the source gives them in different places.
Assays:
[1] = cited from earlier work
[2] = independent of the rate of metabolism; cited from earlier work
[3] = tested on: Sprague-Dawley laboratory rats; assay: Locomotor activity (ambulations) by infrared photobeams (clozapine studies); assay type: in vivo, Sprague-Dawley Rattus Norvegicus; conditions: Acute, clozapine 20 mg/kg i.p. + cocaine 10 mg/kg i.p.
Excerpt: Locomotor activity (ambulation) was monitored with infrared photobeams at the same time as DA and 5-HT release in NAcc was detected with BRODERICK PROBES® in conjunction with In Vivo Microvoltammetry. The chamber was faradaic, covered with copper to refract possible electrical artifacts (dimensions: 24 in (width) by 18 in (depth) by 23.5 in (height)). A 16 by 16 array of these infrared photobeams, were held in place by an aluminum frame which was situated ¾ in above the Plexiglas floor of the chamber to detect locomotor activity. Photobeams were sampled by a Pentium computer to define the x-y position of the animal within a 1.5 in resolution every 100 msec. When an x-y position was calculated, it was used to define the frequency of locomotor activity in counts. The locomotor activity system is a modified version of an Activity Pattern Monitor (APM) (San Diego Instruments, San Diego, Calif.). Behavioral data is presented in absolute frequency, i.e., number of counts recorded.
The first hr pre-drug allowed exploratory behavior. Exploratory behavior is defined as open-field behavior of ambulations (forward locomotion) wherein animals respond to the stimuli of a novel environment with high frequency of behavioral counts. The second hr pre-drug allowed the animal to become habituated before treatment.
In the Acute studies, each drug was administered at the end of the habituation period. Baseline (control) values were taken every five min for the last thirty min of the habituation period at which time drug injection(s) took place. Electrochemical recordings for DA and 5-HT release in NAcc, were continued for two hrs; at the same time, locomotor behavior continued to be monitored and recorded with infrared photobeams. At the end of the 2 hr drug(s) study, animals were then placed back in their home cages.
In the Subacute studies, which took place twenty-four hrs later, the animals were again placed in the faradaic behavioral chamber and no further drug was administered. Recordings of separate electrochemical signals for DA and 5-HT release in NAcc, were taken for one hr; at the same time, locomotor behavior was monitored and recorded with infrared photobeams.
Neurochemical and behavioral data, derived from the last thirty minutes of the habituation period, provided the baseline data. […] Where appropriate, data points in the time course were subjected to 95% Confidence Limits (C.L.).

DA release in NAcc = assay: In vivo microvoltammetry, DA release in NAcc (clozapine studies); parameters: species or system Sprague-Dawley Rattus Norvegicus; conditions: Acute, clozapine 20 mg/kg i.p. + cocaine 10 mg/kg i.p.
Experimental: (§1) There is an increasing awareness that a psychosis, similar to that of schizophrenic psychosis, can be derived from cocaine addiction. […] Release mechanisms for monoamines, were determined by using a depolarization blocker, gamma-butyrolactone (γBL). […] Acute and Subacute studies were performed for each treatment group.
(§2) The stereotaxic equipment was purchased from David Kopf Instruments, Tujunga, Calif. A Ag/AgCl reference electrode was placed in contact with dura, 7 mm anteriorally and contralaterally to the indicator microelectrode. A stainless steel auxiliary microelectrode was placed in contact with dura. BRODERICK PROBE® microelectrodes were manufactured on site.
(§3) In vivo microvoltammetric studies on conscious Sprague-Dawley laboratory rats were begun nine to fifteen days after the aseptic surgical operations were performed. On each experimental day, the animal was placed in a Plexiglas-copper faradaic chamber. The three-microelectrode assembly, enclosed within the animal's prosthetic acrylic cap, was connected to a CV37 detector by means of a mercury commutator (Br. Res. Instr., Princeton, N.J.), a flexible cable, and a mating connector (BJM Electronics, Staten Island, N.Y.). The CV37 detector was electrically connected to a Minigard surge suppresser (Jefferson Electric, Magnetek, N.Y.) which was then connected to an electrical ground in isolation. […] Each animal was used as its own control. Changes in synaptic concentrations of DA and 5-HT are presented as percent change (% of control) in order to minimize normal between-animal variations. […] In vivo microvoltammetric scans were recorded in sec and repeated every five min for a period of 2 hrs before each treatment and a period of two hrs after each treatment.
(§4) Potentials were applied with a CV37 detector (BAS, West Lafayette, Ind.). Potentials were applied from −0.2V to +0.4V with respect to a Ag/AgCl (1M NaCl) electrode, at a scan rate of 10 mV/sec at time constants of 5 and 1 tau. One scan was completed in 60 sec. Non-faradaic charging current was eliminated in the first 25 sec.
(§5) Calibration curves were determined experimentally, in vitro, in a freshly prepared deoxygenated physiological saline-phosphate buffer solution (0.01 M, pH=7.4). We use ultra pure Nitrogen (N2) (T. W. Smith Corp., Bklyn, N.Y.) to deoxygenate the buffer solution. […] Calibration studies were also performed in freshly prepared deoxygenated buffer solutions containing phosphotidylethanolamine (PEA), combined with bovine serum albumin (BSA) (Sigma Aldrich, St. Louis, Mo.), a solution which closely mimics brain constituents. […] Detection limits for basal synaptic concentrations of DA and 5-HT in NAcc were 12 nM and 2 nM respectively.

5-HT release in NAcc = assay: In vivo microvoltammetry, 5-HT release in NAcc (clozapine studies); parameters: species or system Sprague-Dawley Rattus Norvegicus; conditions: Acute, clozapine 20 mg/kg i.p. + cocaine 10 mg/kg i.p.
Experimental: as §1, §2, §3, §4, §5

[4] = cited from earlier work; remark: listed apart in the source

Compound: CN1[C@H]2CC[C@@H]1[C@@H](C(=O)O)[C@@H](OC(=O)c1ccccc1)C2 [benzoylecgonine]
- elimination half-life ([1]; after bolus injections (e.g., 14.7 umol/kg)): 0.667 to 0.733 h

Compound: COC(=O)[C@H]1[C@@H](OC(=O)c2ccccc2)C[C@@H]2CC[C@H]1N2 [norcocaine]
- Detection in brain ([1]; after i.v. cocaine (20-40 mg/kg)): not detected at all

Compound: Cc1nc2n(c(=O)c1CCN1CCC(c3noc4cc(F)ccc34)CC1)CCCC2O (centres unmarked) [9-hydroxyrisperidone]
- Time for which the metabolite is active [2]: 22 h

Compound: CN1CCN(C2=Nc3cc(Cl)ccc3Nc3ccccc32)CC1 [Clozapine, clozapine]
- Average reduction of locomotor activity (ambulation counts) produced by cocaine ([3]; first half hr): 500 counts
- Average reduction of locomotor activity (ambulation counts) produced by cocaine ([3]; next hr of study): 150 counts
- Average reduction of cocaine-induced increases in DA release in NAcc (DA release in NAcc; first hr of study): 40%
- Average reduction of cocaine-induced increases in DA release in NAcc (DA release in NAcc; second hr of study): 50%
- Average reduction of cocaine-induced increases in 5-HT release in NAcc (5-HT release in NAcc; first hr of study): 138%
- Average reduction of cocaine-induced increases in 5-HT release in NAcc (5-HT release in NAcc; second hr of study): 113%
- half-life ([4]; at higher doses): 4 to 66 h
- half-life ([4]; at lower doses): 8 h

— patent US20070270403A1 (priority 2003, published 2007)
